Source: the NIST ThermoML archive (doi:10.1021/je700619q)

Columns and labels:
[1] = 101 kPa, Liquid
[2] = Boiling temperature at pressure P; conditions: 101 kPa; Liquid; Distillation
[3] = xn = mol fraction of the nth substance listed; conditions: 101 kPa, Liquid

CCCCCCCCCCO [decan-1-ol]
[1]
Conditions	mass density [kg/m3]	speed of sound [m/s]	viscosity [mPa·s]
293 K	830.1	1408	13.41
303 K	822.1	1375.2	9.262
313 K	815.7	1344.8	6.515

Conditions	Boiling temperature at pressure P [°C]
[2]	229.80

CCCCCCCCCCO [decan-1-ol] + CCNCC
[3], x2 = 0
Conditions	mass density [kg/m3]	speed of sound [m/s]	viscosity [mPa·s]
293 K	830.1	1408	13.41
303 K	822.1	1375.2	9.262
313 K	815.7	1344.8	6.515

CCNCC [diethylamine]
[1]
Conditions	mass density [kg/m3]	speed of sound [m/s]	viscosity [mPa·s]
293 K	707.6	1140.8	0.3212
303 K	693.6	1089.6	0.275
313 K	678.4	1045	0.2577

Conditions	Boiling temperature at pressure P [°C]
[2]	55.30

CCNCC [diethylamine] + CCCCCCCCCCO
[3]
Conditions	mass density, 293 K [kg/m3]	mass density, 303 K [kg/m3]	mass density, 313 K [kg/m3]	speed of sound, 293 K [m/s]	speed of sound, 303 K [m/s]	speed of sound, 313 K [m/s]	viscosity, 293 K [mPa·s]	viscosity, 303 K [mPa·s]	viscosity, 313 K [mPa·s]
x1 = 0.0989	828.2	820.7	811.5	1383.2	1372.4	1332.8	11.04	7.825	5.532
x1 = 0.1963	824.8	814.6	806.3	1352	1350	1326	8.974	6.352	4.522
x1 = 0.3062	818.1	810	803.7	1347.2	1340	1316	7.105	4.977	3.558
x1 = 0.4062	814.4	808.4	802.1	1333.6	1326	1297.2	5.423	3.524	2.793
x1 = 0.4898	799	794.2	788.9	1321.8	1314	1290.8	3.948	2.857	2.244
x1 = 0.5973	795.6	790.7	782.9	1310.4	1302.4	1274.8	2.609	2.015	1.631
x1 = 0.6708	785.4	779.9	773.7	1302.4	1295.6	1258.4	1.925	1.652	1.257
x1 = 0.7388	779.4	773.3	769.7	1293.6	1278.8	1238.4	1.43	1.253	0.9795
x1 = 0.8012	770.2	763.6	755.5	1288.8	1266.4	1212	1.067	0.9298	0.7247
x1 = 0.8562	759.5	753.7	745.6	1247.2	1216.8	1164.8	0.7924	0.689	0.5424
x1 = 0.9031	741.4	737.6	728.2	1211.2	1176	1123.2	0.6052	0.5352	0.4368
x1 = 0.9601	720.7	709.2	694.8	1173.2	1130.4	1082	0.4396	0.3609	0.3265
x1 = 1	707.6	693.6	678.4	1140.8	1089.6	1045	0.3212	0.275	0.2577
